# Positions of bridges follow the written chain, without caps; N, C: chain ends. Non-standard residues stand in square brackets, D forms with d. Residues, ends and D or L forms follow the SMILES beside them. *: point of attachment. Trp(1-CH2COOH) = N[C@@H](Cc1cn(CC(=O)O)c2ccccc12)C(=O)O; X8 = O=C(O)CCCCCCCCCCCCNC(=O)CCC(=O)NCCCOCCOCCOCCCN*; d(cisHyp) = O=C(O)[C@H]1C[C@@H](O)CN1; NH(CH2)12COOH = O=C(O)CCCCCCCCCCCCN*; PEG6 = NCCOCCOCCOCCOCCOCCOCCC(=O)O; Stearoyl = CCCCCCCCCCCCCCCCCC(=O)*; Palmitoyl = CCCCCCCCCCCCCCCC(=O)*; Hyp = O=C(O)[C@@H]1C[C@@H](O)CN1; NHhexadecyl = CCCCCCCCCCCCCCCCN*; Undecanoyl = CCCCCCCCCCC(=O)*; NMeNle = CCCC[C@H](NC)C(=O)O; NMeA = CN[C@@H](C)C(=O)O; Aun = NCCCCCCCCCCC(=O)O; Dab = NCC[C@H](N)C(=O)O; Dap = NC[C@H](N)C(=O)O
# Biological target: T1, PD-L1 (Homo sapiens, UniProt Q9NZQ7)
# T1 construct: hPDL1(19-239)-TVMV-His; made in house; host or cells: HEK293T
# T1 sequence (Q9NZQ7 with tags, fused parts or gaps): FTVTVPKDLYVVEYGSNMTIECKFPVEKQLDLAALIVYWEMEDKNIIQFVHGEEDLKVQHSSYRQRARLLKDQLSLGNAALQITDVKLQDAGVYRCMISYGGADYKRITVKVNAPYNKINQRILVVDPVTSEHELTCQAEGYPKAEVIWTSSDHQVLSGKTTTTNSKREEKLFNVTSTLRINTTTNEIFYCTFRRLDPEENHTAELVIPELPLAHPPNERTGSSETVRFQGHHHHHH
# Assay: PD-1/PD-L1 Homogenous Time-Resolved Fluorescence (HTRF) binding assay (PD-1-Ig/PD-L1-His)
# Settings: inhibition of PD-1-Ig binding to PD-L1-TVMV-His; value given as number; read-out: HTRF IC50
# Procedure, shortened: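 Inhibitors pre-incubated 15 min with PD-L1-His (10 nM final), then PD-1-Ig (20 nM final) added for 15 min in dPBS/0.1% BSA/0.05% Tween-20. Eu-cryptate anti-Ig (1 nM) and APC anti-His (20 nM) added, 30 min equilibration, 665/620 nm HTRF ratio read.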
row,IC50 [nM],SMILES
1,91.4,CCCCCCCCCCC(=O)NCCCC[C@H](NC(=O)[C@H](CC(=O)O)NC(=O)CNC(=O)[C@@H]1CSCC(=O)N[C@@H](Cc2ccc(O)cc2)C(=O)N(C)[C@@H](C)C(=O)N[C@@H](CC(N)=O)C(=O)N2CCC[C@H]2C(=O)N[C@@H](Cc2cnc[nH]2)C(=O)N[C@@H](CCC(=O)O)C(=O)N2C[C@H](O)C[C@H]2C(=O)N[C@@H](Cc2c[nH]c3ccccc23)C(=O)N[C@@H](CO)C(=O)N[C@@H](Cc2c[nH]c3ccccc23)C(=O)N(C)[C@@H](CCCC)C(=O)N(C)[C@@H](CCCC)C(=O)N[C@@H](CC(C)C)C(=O)N1)C(N)=O [Example 11009] ({CH2CO}-Y[NMeA]NPHE[Hyp]WSW[NMeNle][NMeNle]LCGDK(Undecanoyl)-NH2; thioether N-14)
2,952,CCCCCCCCCCCCCCCCCC(=O)NCCCC[C@H](NC(=O)[C@@H]1CSCC(=O)N[C@@H](Cc2ccc(O)cc2)C(=O)N(C)[C@@H](C)C(=O)N[C@@H](CC(N)=O)C(=O)N2CCC[C@H]2C(=O)N[C@@H](CCN)C(=O)N[C@@H](CC(C)C)C(=O)N2C[C@H](O)C[C@H]2C(=O)N[C@@H](Cc2c[nH]c3ccccc23)C(=O)N[C@@H](CO)C(=O)N[C@@H](Cc2c[nH]c3ccccc23)C(=O)N(C)[C@@H](CCCC)C(=O)N(C)[C@@H](CCCC)C(=O)N[C@@H](CCCNC(=N)N)C(=O)N1)C(N)=O [Example 11001] ({CH2CO}-Y[NMeA]NP[Dab]L[Hyp]WSW[NMeNle][NMeNle]RCK(Stearoyl)-NH2; thioether N-14)

# Same assay, conditions: inhibition of PD-1-Ig binding to PD-L1-TVMV-His; value given as range class; read-out: HTRF IC50
row,SMILES,IC50 [nM]
1,CCCC[C@H]1C(=O)N(C)[C@@H](CCCC)C(=O)N[C@@H](CC(C)C)C(=O)N[C@H](C(=O)NCCCCCCCCCCC(=O)N[C@@H](CC(=O)O)C(N)=O)CSCC(=O)N[C@@H](Cc2ccc(O)cc2)C(=O)N(C)[C@@H](C)C(=O)N[C@@H](CC(N)=O)C(=O)N2CCC[C@H]2C(=O)N[C@@H](Cc2cnc[nH]2)C(=O)N[C@@H](CCC(=O)O)C(=O)N2C[C@H](O)C[C@H]2C(=O)N[C@@H](Cc2c[nH]c3ccccc23)C(=O)N[C@@H](CCN)C(=O)N[C@@H](Cc2cn(CC(=O)O)c3ccccc23)C(=O)N1C [Example 11066] ({CH2CO}-Y[NMeA]NPHE[Hyp]W[Dab][Trp(1-CH2COOH)][NMeNle][NMeNle]LC[Aun]D-NH2; thioether N-14),0.3 to 9.9
2,CCCCCCCCCCCCCCCC(=O)NCCCC[C@H](NC(=O)[C@H](CC(=O)O)NC(=O)CNC(=O)[C@@H]1CSCC(=O)N[C@@H](Cc2ccc(O)cc2)C(=O)N(C)[C@@H](C)C(=O)N[C@@H](CC(N)=O)C(=O)N2CCC[C@H]2C(=O)N[C@@H](CCN)C(=O)N[C@@H](CC(C)C)C(=O)N2C[C@H](O)C[C@H]2C(=O)N[C@@H](Cc2c[nH]c3ccccc23)C(=O)N[C@@H](CO)C(=O)N[C@@H](Cc2c[nH]c3ccccc23)C(=O)N(C)[C@@H](CCCC)C(=O)N(C)[C@@H](CCCC)C(=O)N[C@@H](CCCNC(=N)N)C(=O)N1)C(N)=O [Example 11027] ({CH2CO}-Y[NMeA]NP[Dab]L[Hyp]WSW[NMeNle][NMeNle]RCGDK(Palmitoyl)-NH2; thioether N-14),100 to 1600
3,CCCCCCCCCCC(=O)NCCCC[C@H](NC(=O)[C@H](CCC(=O)O)NC(=O)CNC(=O)[C@@H]1CSCC(=O)N[C@@H](Cc2ccc(O)cc2)C(=O)N(C)[C@@H](C)C(=O)N[C@@H](CC(N)=O)C(=O)N2CCC[C@H]2C(=O)N[C@@H](Cc2cnc[nH]2)C(=O)N[C@@H](CCC(=O)O)C(=O)N2C[C@H](O)C[C@H]2C(=O)N[C@@H](Cc2c[nH]c3ccccc23)C(=O)N[C@@H](CO)C(=O)N[C@@H](Cc2c[nH]c3ccccc23)C(=O)N(C)[C@@H](CCCC)C(=O)N(C)[C@@H](CCCC)C(=O)N[C@@H](CC(C)C)C(=O)N1)C(N)=O [Example 11010] ({CH2CO}-Y[NMeA]NPHE[Hyp]WSW[NMeNle][NMeNle]LCGEK(Undecanoyl)-NH2; thioether N-14),10 to 99
4,CCCC[C@H]1C(=O)N(C)[C@@H](CCCC)C(=O)N[C@@H](CC(C)C)C(=O)N[C@H](C(=O)NCCOCCOCCOCCOCCOCCOCCC(=O)NCCCCCCCCCCC(=O)O)CSCC(=O)N[C@@H](Cc2ccc(O)cc2)C(=O)N(C)[C@@H](C)C(=O)N[C@@H](CC(N)=O)C(=O)N2CCC[C@H]2C(=O)N[C@@H](CO)C(=O)N[C@@H](CCC(N)=O)C(=O)N2C[C@H](O)C[C@@H]2C(=O)N[C@@H](Cc2c[nH]c3ccccc23)C(=O)N[C@@H](CO)C(=O)N[C@@H](Cc2cn(CC(=O)O)c3ccccc23)C(=O)N1C [Example 11060] ({CH2CO}-Y[NMeA]NPSQ[d(cisHyp)]WS[Trp(1-CH2COOH)][NMeNle][NMeNle]LC[PEG6][Aun]-OH; thioether N-14),100 to 1600

# Now from value to compound:
row,IC50 [nM],SMILES
1,10 to 99,CCCC[C@H]1C(=O)N(C)[C@@H](CCCC)C(=O)N[C@@H](CC(C)C)C(=O)N[C@H](C(=O)NCC(=O)NCC(=O)NCC(=O)NCCCCCCCCCCC(=O)O)CSCC(=O)N[C@@H](Cc2ccc(O)cc2)C(=O)N(C)[C@@H](C)C(=O)N[C@@H](CC(=O)O)C(=O)N2CCC[C@H]2C(=O)N[C@@H](CN)C(=O)N[C@@H](CC(C)C)C(=O)N2C[C@H](O)C[C@H]2C(=O)N[C@@H](Cc2c[nH]c3ccccc23)C(=O)N[C@@H](CCN)C(=O)N[C@@H](Cc2cn(CC(=O)O)c3ccccc23)C(=O)N1C [Example 11096] ({CH2CO}-Y[NMeA]DP[Dap]L[Hyp]W[Dab][Trp(1-CH2COOH)][NMeNle][NMeNle]LCGGG[Aun]-OH; thioether N-14)
2,10 to 99,CCCC[C@H]1C(=O)N(C)[C@@H](CCCC)C(=O)N[C@@H](CC(C)C)C(=O)N[C@H](C(=O)NCC(=O)N[C@@H](CC(=O)O)C(=O)NCCCCCCCCCCCCC(=O)O)CSCC(=O)N[C@@H](Cc2ccc(O)cc2)C(=O)N(C)[C@@H](C)C(=O)N[C@@H](CC(=O)O)C(=O)N2CCC[C@H]2C(=O)N[C@@H](Cc2cnc[nH]2)C(=O)N[C@@H](CCCCN)C(=O)N2C[C@H](O)C[C@H]2C(=O)N[C@@H](Cc2c[nH]c3ccccc23)C(=O)N[C@@H](CCCCN)C(=O)N[C@@H](Cc2cn(CC(=O)O)c3ccccc23)C(=O)N1C [Example 11213] ({CH2CO}-Y[NMeA]DPHK[Hyp]WK[Trp(1-CH2COOH)][NMeNle][NMeNle]LCGD-{NH(CH2)12COOH}; thioether N-14)
3,0.3 to 9.9,CCCC[C@H]1C(=O)N(C)[C@@H](CCCC)C(=O)N[C@@H](CCC(=O)O)C(=O)N[C@H](C(=O)NCC(=O)N[C@@H](Cc2cn(CC[C@H](NC(=O)CCCCCCCCCCCCCCC(=O)O)C(=O)O)nn2)C(=O)NCC(N)=O)CSCC(=O)N[C@@H](Cc2ccc(O)cc2)C(=O)N(C)[C@@H](C)C(=O)N[C@@H](CC(=O)O)C(=O)N2CCC[C@H]2C(=O)N[C@@H](Cc2c[nH]cn2)C(=O)N[C@@H](CCCCN)C(=O)N2C[C@H](O)C[C@H]2C(=O)N[C@@H](Cc2c[nH]c3ccccc23)C(=O)N[C@@H](CCCCN)C(=O)N[C@@H](Cc2c[nH]c3ccccc23)C(=O)N1C [Example 14064]
4,10 to 99,CCCC[C@H]1C(=O)N(C)[C@@H](CCCC)C(=O)N[C@@H](CC(C)C)C(=O)N[C@H](C(=O)NCCCOCCOCCOCCCNC(=O)CCC(=O)NCCCCCCCCCCCCC(=O)O)CSCC(=O)N[C@@H](Cc2ccc(O)cc2)C(=O)N(C)[C@@H](C)C(=O)N[C@@H](CC(=O)O)C(=O)N2CCC[C@H]2C(=O)N[C@@H](Cc2cnc[nH]2)C(=O)N[C@@H](CCCCN)C(=O)N2C[C@H](O)C[C@H]2C(=O)N[C@@H](Cc2c[nH]c3ccccc23)C(=O)N[C@@H](CCCCN)C(=O)N[C@@H](Cc2cn(CC(=O)O)c3ccccc23)C(=O)N1C [Example 11219] ({CH2CO}-Y[NMeA]DPHK[Hyp]WK[Trp(1-CH2COOH)][NMeNle][NMeNle]LC-X8; thioether N-14)
5,0.3 to 9.9,CCCC[C@H]1C(=O)N(C)[C@@H](CCCC)C(=O)N[C@@H](CC(C)C)C(=O)N[C@H](C(=O)NCC(=O)NCC(=O)NCC(=O)NCCCCCCCCCCC(=O)O)CSCC(=O)N[C@@H](Cc2ccc(O)cc2)C(=O)N(C)[C@@H](C)C(=O)N[C@@H](CC(=O)O)C(=O)N2CCC[C@H]2C(=O)N[C@@H](CN)C(=O)N[C@@H](CCC(N)=O)C(=O)N2C[C@H](O)C[C@H]2C(=O)N[C@@H](Cc2c[nH]c3ccccc23)C(=O)N[C@@H](CCN)C(=O)N[C@@H](Cc2cn(CC(=O)O)c3ccccc23)C(=O)N1C [Example 11095] ({CH2CO}-Y[NMeA]DP[Dap]Q[Hyp]W[Dab][Trp(1-CH2COOH)][NMeNle][NMeNle]LCGGG[Aun]-OH; thioether N-14)
6,10 to 99,CCCC[C@H]1C(=O)N(C)[C@@H](CCCC)C(=O)N[C@@H](CC(C)C)C(=O)N[C@H](C(=O)NCCCCCCCCCCC(=O)N[C@@H](CCC(=O)O)C(=O)O)CSCC(=O)N[C@@H](Cc2ccc(O)cc2)C(=O)N(C)[C@@H](C)C(=O)N[C@@H](CC(N)=O)C(=O)N2CCC[C@H]2C(=O)N[C@@H](CN)C(=O)N[C@@H](CCC(N)=O)C(=O)N2C[C@H](O)C[C@H]2C(=O)N[C@@H](Cc2c[nH]c3ccccc23)C(=O)N[C@@H](CO)C(=O)N[C@@H](Cc2cn(CC(=O)O)c3ccccc23)C(=O)N1C [Example 11132] ({CH2CO}-Y[NMeA]NP[Dap]Q[Hyp]WS[Trp(1-CH2COOH)][NMeNle][NMeNle]LC[Aun]E-OH; thioether N-14)
7,100 to 1600,CCCCCCCCCCCCCCCCNC(=O)CNC(=O)CNC(=O)[C@@H]1CSCC(=O)N[C@@H](Cc2ccc(O)cc2)C(=O)N(C)[C@@H](C)C(=O)N[C@@H](CC(N)=O)C(=O)N2CCC[C@H]2C(=O)N[C@@H](CCC(=O)O)C(=O)N[C@@H](CC(C)C)C(=O)N2C[C@H](O)C[C@H]2C(=O)N[C@@H](Cc2c[nH]c3ccccc23)C(=O)N[C@@H](CO)C(=O)N[C@@H](Cc2c[nH]c3ccccc23)C(=O)N(C)[C@@H](CCCC)C(=O)N(C)[C@@H](CCCC)C(=O)N[C@@H](CCCNC(=N)N)C(=O)N1 [Example 11109] ({CH2CO}-Y[NMeA]NPEL[Hyp]WSW[NMeNle][NMeNle]RCGG-NHhexadecyl; thioether N-14)

# From patent US10633419B2, “Immunomodulators” (BRISTOL-MYERS SQUIBB COMPANY, priority 2014, dated 2020)
